Measured values as given in PubChem BioAssay AID328 (DTP/NCI, 2004).
Values joined by “and” are separate entries in the source; they are usually repeats but may differ in a detail not shown here. Identical values can stand only once. Inconclusive results and toxic doses are left out.

Tested on: BDF1 mice, P388 leukemia ip, median survival T/C
Assay: NCI In Vivo Anticancer Drug Screen. Data for tumor model P388 Leukemia (intraperitoneal) in B6D2F1 (BDF1) mice
Conditions: endpoint: median survival time, higher = longer survival
Procedure, shortened: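 Compound-treated tumour-bearing mice were compared with vehicle-treated controls. Survival was recorded, and the value is the treated-group measurement divided by the control-group measurement (T/C).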

[1] = dose: 50.0 mg/kg/injection, schedule: Q01DX009 (ip), vehicle: saline
[2] = dose: 75.0 mg/kg/injection, schedule: Q04DX003 (ip), vehicle: saline
[3] = dose: 100.0 mg/kg/injection, schedule: Q01DX009 (ip), vehicle: saline
[4] = dose: 25.0 mg/kg/injection, schedule: Q04DX003 (ip), vehicle: saline with Tween-80
[5] = dose: 200.0 mg/kg/injection, schedule: Q01DX009 (ip), vehicle: saline
[6] = dose: 25.0 mg/kg/injection, schedule: Q01DX009 (ip), vehicle: saline with Tween-80
[7] = dose: 100.0 mg/kg/injection, schedule: Q01DX009 (ip), vehicle: saline with Tween-80
[8] = dose: 100.0 mg/kg/injection, schedule: Q04DX003 (ip), vehicle: saline with Tween-80
[9] = dose: 200.0 mg/kg/injection, schedule: Q04DX003 (ip), vehicle: saline with Tween-80
[10] = dose: 50.0 mg/kg/injection, schedule: Q01DX009 (ip), vehicle: saline with Tween-80
[11] = dose: 200.0 mg/kg/injection, schedule: Q01DX009 (ip), vehicle: saline with Tween-80
[12] = dose: 100.0 mg/kg/injection, schedule: Q04DX003 (ip), vehicle: Klucel (hydroxypropylcellulose) (HPC)
[13] = dose: 200.0 mg/kg/injection, schedule: Q04DX003 (ip), vehicle: Klucel (hydroxypropylcellulose) (HPC)
[14] = dose: 400.0 mg/kg/injection, schedule: Q04DX003 (ip), vehicle: Klucel (hydroxypropylcellulose) (HPC)
[15] = dose: 400.0 mg/kg/injection, schedule: Q01DX009 (ip), vehicle: Klucel (hydroxypropylcellulose) (HPC)
[16] = dose: 50.0 mg/kg/injection, schedule: Q04DX003 (ip), vehicle: saline with Tween-80

With `O=[n+]1ccn2ccccc2c1` the T/C (dose: 25.0 mg/kg/injection, schedule: Q01DX009 (ip), vehicle: saline) was 95 % of control, the T/C [1] was 114 % of control and the T/C (dose: 65.0 mg/kg/injection, schedule: Q01DX009 (ip), vehicle: saline) was 95 % of control. The T/C [2] was 100 % of control, the T/C [3] was 108 % of control and the T/C (dose: 150.0 mg/kg/injection, schedule: Q04DX003 (ip), vehicle: saline) was 90 % of control.

`Clc1ccc(C#Cc2ccc(Cl)cc2)cc1` was tested, and the T/C (dose: 6.25 mg/kg/injection, schedule: Q04DX003 (ip), vehicle: saline with Tween-80) was 92 % of control, the T/C (dose: 12.5 mg/kg/injection, schedule: Q04DX003 (ip), vehicle: saline with Tween-80) was 92 % of control and the T/C [4] was 96 % of control.

In the case of `CCCC#CC#N`, the T/C (dose: 25.0 mg/kg/injection, schedule: Q01DX009 (ip), vehicle: olive oil, sesame oil, peanut oil) is reported as 104 % of control and the T/C (dose: 50.0 mg/kg/injection, schedule: Q01DX009 (ip), vehicle: olive oil, sesame oil, peanut oil) is reported as 91 % of control.

With `COC(=O)C1(N)CCCC1` the T/C [3] was 91 % of control and the T/C [5] was 104 % of control.

`COc1cccc2c1C(=O)c1c(O)c3c(c(O)c1C2=O)C[C@@](O)(/C(CO)=N/NC(=O)c1ccccc1)C[C@@H]3OC1CC(N)C(O)C(C)O1` (stereo partly drawn) was tested, and the T/C (dose: 3.12 mg/kg/injection, schedule: Q01DX009 (ip), vehicle: water) was 180 % of control, the T/C (dose: 6.25 mg/kg/injection, schedule: Q01DX009 (ip), vehicle: water) was 252 % of control and the T/C (dose: 12.5 mg/kg/injection, schedule: Q01DX009 (ip), vehicle: water) was 267 % of control.

`CCOC(=O)C1CCCNC1` (stereo not drawn) was tested, and the T/C [3] was 104 % of control, the T/C (dose: 100.0 mg/kg/injection, schedule: Q04DX003 (ip), vehicle: saline) was 95 % of control and the T/C [5] was 100 % of control. For the same molecule, the T/C (dose: 200.0 mg/kg/injection, schedule: Q04DX003 (ip), vehicle: saline) was 91 % of control, the T/C (dose: 400.0 mg/kg/injection, schedule: Q01DX009 (ip), vehicle: saline) was 112 % of control and the T/C (dose: 400.0 mg/kg/injection, schedule: Q04DX003 (ip), vehicle: saline) was 87 % of control.

In the case of `CCN(CC)P(=O)(N1CC1C)N1CC1C` (stereo not drawn), the T/C (dose: 4.4 mg/kg/injection, schedule: Q01DX009 (ip), vehicle: saline) is reported as 109 % of control, the T/C (dose: 6.6 mg/kg/injection, schedule: Q01DX009 (ip), vehicle: saline) is reported as 109 % of control and the T/C (dose: 10.0 mg/kg/injection, schedule: Q01DX009 (ip), vehicle: saline) is reported as 104 % of control. For the same molecule, the T/C (dose: 12.5 mg/kg/injection, schedule: Q04DX003 (ip), vehicle: saline) was 116 % of control, the T/C (dose: 13.2 mg/kg/injection, schedule: Q01DX009 (ip), vehicle: saline) was 118 % of control and the T/C (dose: 15.0 mg/kg/injection, schedule: Q01DX009 (ip), vehicle: saline) was 113 % of control. The T/C (dose: 20.0 mg/kg/injection, schedule: Q01DX009 (ip), vehicle: saline) was 157 % of control and 180 % of control, the T/C (dose: 25.0 mg/kg/injection, schedule: Q04DX003 (ip), vehicle: saline) was 100 % of control and the T/C (dose: 30.0 mg/kg/injection, schedule: Q01DX009 (ip), vehicle: saline) was 150 % of control. For the same molecule, the T/C (dose: 33.0 mg/kg/injection, schedule: Q04DX003 (ip), vehicle: saline) was 121 % of control, the T/C (dose: 45.0 mg/kg/injection, schedule: Q01DX009 (ip), vehicle: saline) was 90 % of control and the T/C (dose: 50.0 mg/kg/injection, schedule: Q04DX003 (ip), vehicle: saline) was 113 % of control. The T/C [2] was 169 % of control.

With `C=CC(=O)NCCC(=O)O` the T/C [1] was 100 % of control, the T/C [3] was 90 % of control and the T/C [5] was 94 % of control.

`[Cl][Pd][Cl].[NH-]CC[NH-]` was tested, and the T/C (dose: 6.0 mg/kg/injection, schedule: Q01DX009 (ip), vehicle: saline with Tween-80) was 104 % of control, the T/C (dose: 12.0 mg/kg/injection, schedule: Q01DX009 (ip), vehicle: saline with Tween-80) was 104 % of control and the T/C [6] was 100 % of control. For the same molecule, the T/C [7] was 118 % of control, the T/C [8] was 100 % of control and the T/C [9] was 118 % of control. The T/C (dose: 400.0 mg/kg/injection, schedule: Q04DX003 (ip), vehicle: saline with Tween-80) was 113 % of control.

With `CC(C)(C)c1cc(C(C)(C)c2ccccc2)cc(Cc2cc(C(C)(C)c3ccccc3)cc(C(C)(C)C)c2O)c1O` the T/C (dose: 50.0 mg/kg/injection, schedule: Q01DX009 (ip), vehicle: saline + Tween-80 + alcohol) was 118 % of control, the T/C [10] was 96 % of control and the T/C (dose: 100.0 mg/kg/injection, schedule: Q01DX009 (ip), vehicle: saline + Tween-80 + alcohol) was 90 % of control. The T/C [7] was 100 % of control, the T/C (dose: 200.0 mg/kg/injection, schedule: Q01DX009 (ip), vehicle: saline + Tween-80 + alcohol) was 115 % of control and the T/C [11] was 124 % of control. The T/C (dose: 400.0 mg/kg/injection, schedule: Q01DX009 (ip), vehicle: saline + Tween-80 + alcohol) was 107 % of control.

With `CSc1ccccc1C(=O)NNS(=O)(=O)c1ccc(C)cc1` the T/C [12] was 91 % of control, the T/C [13] was 104 % of control and the T/C [14] was 100 % of control.

In the case of `COC(=O)c1cc(C)c(Br)c(N)c1`, the T/C (dose: 100.0 mg/kg/injection, schedule: Q01DX009 (ip), vehicle: Klucel (hydroxypropylcellulose) (HPC)) is reported as 105 % of control, the T/C [12] is reported as 109 % of control and the T/C (dose: 200.0 mg/kg/injection, schedule: Q01DX009 (ip), vehicle: Klucel (hydroxypropylcellulose) (HPC)) is reported as 100 % of control. The T/C [13] was 104 % of control, the T/C [15] was 100 % of control and the T/C [14] was 109 % of control.

With `CCCCCCCCCCCCCCCCCCOc1ccccn1` the T/C (dose: 3.12 mg/kg/injection, schedule: Q01DX009 (ip), vehicle: Klucel (hydroxypropylcellulose) (HPC)) was 100 % of control, the T/C (dose: 6.25 mg/kg/injection, schedule: Q01DX009 (ip), vehicle: Klucel (hydroxypropylcellulose) (HPC)) was 104 % of control and the T/C (dose: 12.5 mg/kg/injection, schedule: Q01DX009 (ip), vehicle: Klucel (hydroxypropylcellulose) (HPC)) was 104 % of control. For the same molecule, the T/C [12] was 95 % of control, the T/C [13] was 100 % of control and the T/C [15] was 89 % of control. The T/C [14] was 95 % of control.

For `CCOC(=O)c1cc2nc3ccccn3c(=O)c2cc1N`, the T/C [7] was 100 % of control and the T/C [11] was 91 % of control.

For `c1ccc2c(SSc3cccc4ccccc34)cccc2c1`, the T/C [4] was 108 % of control, the T/C [16] was 108 % of control and the T/C [8] was 112 % of control. The T/C [9] was 103 % of control.

With `COc1cccc(CC2=C3CCCN(C(=O)c4ccccc4)C3CCC2=O)c1` (stereo not drawn) the T/C (dose: 100.0 mg/kg/injection, schedule: Q01DX001 (ip), vehicle: saline sonified) was 90 % of control, the T/C (dose: 200.0 mg/kg/injection, schedule: Q01DX001 (ip), vehicle: saline sonified) was 90 % of control and the T/C (dose: 400.0 mg/kg/injection, schedule: Q01DX001 (ip), vehicle: saline sonified) was 104 % of control.

In the case of `COC1C(=O)CCC2(CO2)C1(O)C1(C)OC1CCC(C)C` (stereo not drawn), the T/C (dose: 22.0 mg/kg/injection, schedule: Q01DX009 (ip), vehicle: saline with Tween-80) is reported as 109 % of control, the T/C (dose: 44.0 mg/kg/injection, schedule: Q01DX009 (ip), vehicle: saline with Tween-80) is reported as 109 % of control and the T/C (dose: 87.5 mg/kg/injection, schedule: Q01DX009 (ip), vehicle: saline with Tween-80) is reported as 110 % of control and 118 % of control.

In the case of `CCCCn1cnc2c(=S)nc(N)[nH]c21`, the T/C (dose: 12.5 mg/kg/injection, schedule: Q01DX009 (ip), vehicle: saline with Tween-80) is reported as 109 % of control, the T/C [6] is reported as 118 % of control and the T/C (dose: 33.0 mg/kg/injection, schedule: Q04DX003 (ip), vehicle: saline with Tween-80) is reported as 100 % of control and 118 % of control. The T/C [10] was 118 % of control, the T/C [16] was 108 % of control and 118 % of control and the T/C (dose: 75.0 mg/kg/injection, schedule: Q04DX003 (ip), vehicle: saline with Tween-80) was 122 % of control.

With `CN(C)c1ccc(C=Nc2ccc(/C=C\c3ccnc4ccccc34)cc2)cc1` the T/C [10] was 107 % of control, the T/C [7] was 117 % of control and the T/C [11] was 100 % of control.

With `COC(=O)C(CC(=O)c1ccccc1)NCc1ccccc1` (stereo not drawn) the T/C (dose: 100.0 mg/kg/injection, schedule: Q01DX001 (ip), vehicle: saline with Tween-80) was 100 % of control, the T/C (dose: 200.0 mg/kg/injection, schedule: Q01DX001 (ip), vehicle: saline with Tween-80) was 95 % of control and the T/C (dose: 400.0 mg/kg/injection, schedule: Q01DX001 (ip), vehicle: saline with Tween-80) was 100 % of control.

With `O=C(Nc1cccc(Cl)c1)NN(c1ccccc1)C1CCS(=O)(=O)C1` (stereo not drawn) the T/C [10] was 99 % of control, the T/C [7] was 98 % of control and the T/C [11] was 100 % of control.

With `CCOC(=O)c1ccc(C=O)[nH]1` the T/C [10] was 101 % of control, the T/C [7] was 99 % of control and the T/C [11] was 99 % of control.
